ChEMBL document CHEMBL4004887, “Design, synthesis and in vitro activity of 1,4-disubstituted piperazines and piperidines as triple reuptake inhibitors” (Bioorg Med Chem, 2017)
pIC50: −log10 of the molar value.

Experiments:
Type in all cases: cell-based
[1] = molecular target: Sodium-dependent serotonin transporter (Homo sapiens, UniProt P31645); assay: Inhibition of [3H]-5-hydroxytryptamine reuptake in human SERT expressed in HEK293 cells by microbeta liquid scintillation counting method
[2] = molecular target: Sodium-dependent dopamine transporter (Homo sapiens, UniProt Q01959); assay: Inhibition of […] reuptake in human DAT expressed in HEK293 cells by microbeta liquid scintillation counting method
[3] = molecular target: Sodium-dependent noradrenaline transporter (Homo sapiens, UniProt P23975); assay: Inhibition of […] reuptake in human NET expressed in HEK293 cells by microbeta liquid scintillation counting method
Sequence of Sodium-dependent noradrenaline transporter (P23975 whole entry): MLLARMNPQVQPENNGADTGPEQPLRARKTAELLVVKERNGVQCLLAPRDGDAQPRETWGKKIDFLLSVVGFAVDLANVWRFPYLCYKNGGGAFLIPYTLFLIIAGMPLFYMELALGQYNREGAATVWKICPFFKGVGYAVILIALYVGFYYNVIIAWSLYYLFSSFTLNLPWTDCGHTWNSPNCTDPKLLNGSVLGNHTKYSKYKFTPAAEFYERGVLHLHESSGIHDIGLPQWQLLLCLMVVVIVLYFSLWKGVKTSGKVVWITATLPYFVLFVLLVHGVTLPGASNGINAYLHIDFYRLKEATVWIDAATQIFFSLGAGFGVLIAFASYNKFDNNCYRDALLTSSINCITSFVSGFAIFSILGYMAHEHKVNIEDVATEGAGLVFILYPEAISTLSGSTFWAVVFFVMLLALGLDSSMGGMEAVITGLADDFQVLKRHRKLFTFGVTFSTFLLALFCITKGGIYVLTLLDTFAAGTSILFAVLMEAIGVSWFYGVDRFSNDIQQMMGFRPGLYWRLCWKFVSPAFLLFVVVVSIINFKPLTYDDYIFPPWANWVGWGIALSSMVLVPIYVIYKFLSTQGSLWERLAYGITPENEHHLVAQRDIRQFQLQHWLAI

Sequence of Sodium-dependent serotonin transporter (P31645 whole entry): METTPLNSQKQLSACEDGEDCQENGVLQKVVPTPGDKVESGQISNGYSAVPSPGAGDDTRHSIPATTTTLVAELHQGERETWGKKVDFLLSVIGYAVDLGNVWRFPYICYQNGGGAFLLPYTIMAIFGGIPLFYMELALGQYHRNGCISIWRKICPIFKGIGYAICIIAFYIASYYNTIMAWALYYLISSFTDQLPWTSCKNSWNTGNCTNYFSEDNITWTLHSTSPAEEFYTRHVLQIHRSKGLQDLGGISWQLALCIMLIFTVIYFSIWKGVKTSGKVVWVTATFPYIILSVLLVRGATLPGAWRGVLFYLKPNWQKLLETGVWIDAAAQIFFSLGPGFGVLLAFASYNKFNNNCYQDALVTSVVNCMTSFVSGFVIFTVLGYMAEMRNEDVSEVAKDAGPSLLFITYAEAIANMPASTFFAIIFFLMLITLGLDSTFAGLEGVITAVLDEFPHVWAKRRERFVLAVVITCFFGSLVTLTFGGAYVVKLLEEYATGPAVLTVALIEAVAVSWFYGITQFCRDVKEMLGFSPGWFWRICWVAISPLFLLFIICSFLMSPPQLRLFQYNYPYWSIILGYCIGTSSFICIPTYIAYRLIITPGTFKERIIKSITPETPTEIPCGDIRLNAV
Sequence of Sodium-dependent dopamine transporter (Q01959 whole entry): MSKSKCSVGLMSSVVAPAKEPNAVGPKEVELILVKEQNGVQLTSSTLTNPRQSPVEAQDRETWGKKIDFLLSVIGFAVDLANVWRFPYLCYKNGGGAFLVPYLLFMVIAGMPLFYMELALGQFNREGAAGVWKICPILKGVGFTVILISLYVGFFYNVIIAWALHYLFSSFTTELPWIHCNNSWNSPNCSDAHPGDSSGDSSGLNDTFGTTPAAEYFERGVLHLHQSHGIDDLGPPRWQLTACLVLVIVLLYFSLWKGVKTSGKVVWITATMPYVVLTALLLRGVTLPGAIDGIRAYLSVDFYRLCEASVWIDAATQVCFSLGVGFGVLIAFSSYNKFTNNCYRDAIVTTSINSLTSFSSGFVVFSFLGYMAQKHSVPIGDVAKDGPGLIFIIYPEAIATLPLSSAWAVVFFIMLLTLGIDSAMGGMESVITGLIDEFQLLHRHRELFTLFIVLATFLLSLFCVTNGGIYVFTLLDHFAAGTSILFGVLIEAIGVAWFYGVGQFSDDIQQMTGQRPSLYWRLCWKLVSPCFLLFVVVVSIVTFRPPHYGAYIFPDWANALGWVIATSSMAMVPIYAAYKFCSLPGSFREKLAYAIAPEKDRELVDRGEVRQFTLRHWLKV

SMILES	pIC50 [1]	pIC50 [2]	pIC50 [3]
O=C(NCCCN1CCC(Cc2ccccc2)CC1)C(c1ccccc1)c1ccccc1	< 5.00	5.97	5.66
O=C(NCCCN1CCC(Cc2ccccc2)CC1)C(c1ccc(Cl)cc1)c1ccc(Cl)cc1	5.12	5.87	5.69
O=C(NCCN1CCC(Cc2ccccc2)CC1)C(c1ccccc1)c1ccccc1	< 5.00	6.72	5.77
O=C(NCCN1CCC(Cc2ccccc2)CC1)C(c1ccc(Cl)cc1)c1ccc(Cl)cc1	< 5.00	6.20	5.10
C(=C\c1ccccc1)/CN1CCN(CCCn2nnnc2C(c2ccccc2)c2ccccc2)CC1	5.12	5.65	5.88
c1ccc(CCCN2CCN(CCCn3nnnc3C(c3ccccc3)c3ccccc3)CC2)cc1	5.10	5.79	6.24
Fc1ccc(C(OCCN2CCN(c3cccc(Cl)c3Cl)CC2)c2ccc(F)cc2)cc1	5.30	5.52	5.52
Fc1ccc(C(OCCN2CCN(c3ccccc3Cl)CC2)c2ccc(F)cc2)cc1	< 5.00	5.25	5.90
Fc1ccc(C(OCCN2CCC(Cc3ccccc3)CC2)c2ccc(F)cc2)cc1	5.78	5.17	5.23
c1ccc(CC2CCN(CCCn3nnnc3C(c3ccccc3)c3ccccc3)CC2)cc1	< 5.00	7.03	6.28
c1ccc(CN2CCN(CCCn3nnnc3C(c3ccccc3)c3ccccc3)CC2)cc1	5.30	6.53	6.28
c1ccc(CCN2CCN(CCCCn3nnnc3C(c3ccccc3)c3ccccc3)CC2)cc1	5.10	6.22	6.48
C(=C\c1ccccc1)/CN1CCN(CCCCn2nnnc2C(c2ccccc2)c2ccccc2)CC1	5.20	5.44	6.50
Fc1ccc(C(OCCN2CCN(c3ccccn3)CC2)c2ccc(F)cc2)cc1	6.24	6.00	6.22
Fc1ccc(C(OCCN2CCN(c3ccc(Cl)cc3Cl)CC2)c2ccc(F)cc2)cc1	5.41	5.00	5.43
c1ccc(CCN2CCN(CCn3nnnc3C(c3ccccc3)c3ccccc3)CC2)cc1	5.32	6.17	5.55
Fc1ccc(C(OCCN2CCN(c3cccc(Cl)c3)CC2)c2ccc(F)cc2)cc1	5.30	5.56	5.88
c1ccc(CCCN2CCN(CCn3nnnc3C(c3ccccc3)c3ccccc3)CC2)cc1	5.41	6.16	5.83
Fc1ccc(C(OCCN2CCN(c3ccc(Cl)cc3)CC2)c2ccc(F)cc2)cc1	5.16	5.86	5.80
c1ccc(CC2CCN(CCn3nnnc3C(c3ccccc3)c3ccccc3)CC2)cc1	5.11	6.51	5.77
Fc1ccc(C(OCCN2CCN(c3ccccc3)CC2)c2ccc(F)cc2)cc1	5.72	5.00	5.27
c1ccc(CN2CCN(CCn3nnnc3C(c3ccccc3)c3ccccc3)CC2)cc1	< 5.00	5.64	5.37
c1ccc(CCN2CCN(CCCn3nnnc3C(c3ccccc3)c3ccccc3)CC2)cc1	5.95	5.95	6.40
c1ccc(CC2CCN(CCCCn3nnnc3C(c3ccccc3)c3ccccc3)CC2)cc1	6.26	6.23	5.82
C(=C\c1ccccc1)/CN1CCN(CCn2nnnc2C(c2ccccc2)c2ccccc2)CC1	< 5.00	6.03	5.75
Fc1ccc(C(OCCN2CCN(c3ccc(Cl)c(Cl)c3)CC2)c2ccc(F)cc2)cc1	5.28	5.39	5.88
c1ccc(CN2CCN(CCCCn3nnnc3C(c3ccccc3)c3ccccc3)CC2)cc1	5.82	6.50	6.49
Fc1ccc(C(OCCN2CCN(c3ncccn3)CC2)c2ccc(F)cc2)cc1	5.85	5.77	5.79
